Results taken from US20250051403A1, “ANTIMICROBIAL PEPTIDES, VARIANTS AND CHEMICAL ANALOGUES THEREOF AND THEIR USES” (priority 2021, published 2025).
≈ marks a conversion by molar mass, not a printed value. Like-named read-outs stand apart in the source and are kept apart here. Positions of bridges follow the written chain, without caps; N, C: chain ends. Residues, ends and D or L forms follow the SMILES beside them.

Assays:
[1] = tested on: V. alginolyticus (MPV19 IFREMER); assay: MIC, broth microdilution; assay type: cell-based, Vibrio alginolyticus
[2] = tested on: Escherichia coli (ATCC 8739); assay: MIC, broth microdilution; assay type: cell-based; conditions: ATCC 8739
[3] = tested on: Staphylococcus aureus (ATCC 6538P); assay: MIC, broth microdilution; assay type: cell-based; conditions: ATCC 6538
S. aureus (Pasteur) = assay: MIC, broth microdilution; assay type: cell-based, Staphylococcus aureus; conditions: Pasteur
[4] = tested on: S. aureus methicillin resistant USA300 (ATCC BAA-1717); assay: MIC, broth microdilution; assay type: cell-based, Staphylococcus aureus; conditions: USA300
[5] = tested on: P. aeruginosa Fluoroquinolone resistant (CIP 107398); assay: MIC, broth microdilution; assay type: cell-based, Pseudomonas aeruginosa; conditions: CIP 107398
[6] = tested on: Acinetobacter baumannii (CIP 103572); assay: MIC, broth microdilution; assay type: cell-based; conditions: CIP 103572
[7] = tested on: Klebsiella pneumoniae carbapenem-resistant (DSMZ 26371); assay: MIC, broth microdilution; assay type: cell-based; conditions: DSMZ 26371
[8] = tested on: Enterococcus faecalis Vancomycin-resistant (DSMZ 13591); assay: MIC, broth microdilution; assay type: cell-based; conditions: DSMZ 13591
[9] = tested on: Helicobacter pylori (ATCC 43504); assay: MIC, broth microdilution; assay type: cell-based; conditions: ATCC 43504
[10] = tested on: Burkholderia cepacia (DSM 7288); assay: MIC, broth microdilution; assay type: cell-based; conditions: DSM 7288
Serratia marcescens = assay: MIC, broth microdilution; assay type: cell-based
Pseudomonas sp biofilm = assay: Biofilm formation assay (crystal violet); assay type: cell-based; conditions: 20 μM peptide, 2 h at 37° C. on 48 h biofilm; untreated culture 0.95
Experimental: Overnight cultures of V. diabolicus and Pseudomonas sp (37° C., 200 rpm) were diluted to an OD600 of 0.1 in MHB medium and 200 μL aliquots of the suspensions were introduced into the wells of a 96 microtiter plates (Nunc). Plates were then incubated at 37° C. without shaking for 48 h. After removal of the standing culture, the wells were washed with MHB medium and Michelicin, Arenicin and Alvinellacin were added, respectively, at a final concentration of 20 μM in MHB. The treatment was performed during 2 h at 37° C. Wells were then washed three times with distilled water and the remaining attached bacteria were fixed with 99% methanol per well for 20 min at room temperature. Afterward, methanol was removed and plates were air-dried. Biofilms were stained with 300 μL of 1% crystal violet (v/v) for 20 min at room temperature, before the residual stain was removed. After washing, the crystal violet bound to the adherent cells was solubilized with 300 μL of 100% ethanol and absorbance was measured at 595 nm (TECAN, sunrise). Sterile medium served as negative control. It is clear on the view of FIG. 3 that Michelicin has a greater antimicrobial activity on a biofilm of Pseudomonoas sp strains than Alvinellacin. For Pseudomonas sp, OD595 is equal to 0.6 when treated with Michelicin, equal to 0.55 when treated with Arenicin and equal to 0.65 when treated with Alvinellacin. […]

[11] = Cytotoxicity, resazurin cell viability; assay type: cell-based, human; conditions: human
Experimental: The toxicity of Michelicin on human cells was tested as previously described (Borie et al., 2017; Oyama et al., 2017). Briefly, human cells were cultured in Dulbecco's modified essential medium (DMEM) supplemented with 10% fetal calf serum (FCS), 1% L-glutamine and 1% antibiotics (all from Invitrogen). Cells were routinely grown in onto 25 cm^2 flasks maintained in a 5% CO2 incubator at 37° C. For toxicity assay, cells grown on 25 cm^2 flasks were detached using trypsin-EDTA solution (Thermofisher) and seeded into 96-well cell culture plates (Greiner Bio-one) at approximately 10^4 cells per well (counted using Mallasez's chamber). The cells were grown at 37° C. in a 5% CO2 incubator until they reached confluence (approximately 48-72 h of seeding). Wells were then aspirated and increasing concentrations of AMP were added to the cells and incubated for a further 48 h at 37° C. in a 5% CO2 incubator. The wells were then emptied, and cell viability was evaluated using resazurin based in vitro toxicity assay kit (Sigma-Aldrich) following manufacturer's instructions. Briefly, resazurin stock solution was diluted 1:100 in sterile PBS containing calcium and magnesium (PBS++, pH 7.4) and emptied wells were filled with 100 μL of the resazurin diluted solution. After 4 h incubation at 37° C. with the peptide treated cells, fluorescence intensity was measured using microplate reader (SynerMix, Bioteck) (excitation wavelength of 530 nm/emission wavelength of 590 nm). The fluorescence values were normalized by the controls and expressed as percentage of cell viability. The IC50 values of tested AMP on cell viability (i.e. the concentration of peptides causing a reduction of 50% of the cell viability) were calculated using GraphPad® Prism 7 software. Two cell lines were tested: Human Bronchial Epithelial Cell Line (BEAS; ATCC CRL-9609) and Human umbilical vein endothelial cell (HUVEC).

[12] = tested on: E. coli carbapenem- resistant (DSMZ 22314); conditions: DSMZ 22314
[13] = tested on: A. baumannii antibiotic resistant (CIP 110431); conditions: CIP 110431
[14] = tested on: Mycobacterium tuberculosis mc^26230
Jurkat human cells = conditions: cited from earlier work

Structure (SMILES): CC(C)C[C@@H]1NC(=O)[C@H](C(C)C)NC(=O)CNC(=O)[C@H](CCCNC(=N)N)NC(=O)[C@H](C(C)C)NC(=O)[C@H](CCCNC(=N)N)NC(=O)[C@H](C(C)C)NC(=O)[C@H](Cc2ccc(O)cc2)NC(=O)[C@H](C)NC(=O)[C@H](Cc2ccc(O)cc2)NC(=O)[C@H](C(C)C)NC(=O)[C@@H](NC(=O)[C@H](Cc2c[nH]c3ccccc23)NC(=O)[C@@H](N)CCCNC(=N)N)CSSC[C@@H](C(=O)N[C@@H](Cc2c[nH]c3ccccc23)C(=O)O)NC(=O)[C@H](CCCNC(=N)N)NC(=O)[C@H](CCCNC(=N)N)NC(=O)[C@H](Cc2ccc(O)cc2)NC(=O)[C@H](CCCNC(=N)N)NC(=O)[C@H](C(C)C)NC1=O [Arenicin] (H-RWCVYAYVRVRGVLVRYRRCW-OH; disulfide 3-20)
- MIC [1]: 0.15 to 0.31 µM
- MIC with 565 mM NaCl [1]: 2.5 to 5 µM
- MIC [2]: 2.5 to 5 µM
- MIC [3]: 1.25 to 2.5 µM
- MIC (S. aureus (Pasteur)): 1.25 to 2.5 µM
- MIC [4]: 5 to 10 µM
- MIC [5]: 1.25 to 2.5 µM
- MIC [6]: 1.25 to 2.5 µM
- MIC [7]: 1.25 to 2.5 µM
- MIC [8]: 1.25 to 2.5 µM
- MIC [9]: 1.25 to 2.5 µM
- MIC [10]: 25 µM (≈ 69 µg/mL)
- MIC (Serratia marcescens): >50 µM
- Biofilm OD595 after treatment (Pseudomonas sp biofilm): 0.55
- viability at 48 h, 80 µM ([11]; BEAS human bronchial epithelial cells (ATCC CRL-9609)): 95%
- viability at 48 h, 80 µM ([11]; HUVEC (human umbilical vein endothelial cells)): 40%
- MIC (Vibrio alginolyticus): 0.15 to 0.31 µM
- MIC with 565 mM NaCl (Vibrio alginolyticus): 0.07 to 0.15 µM
- MIC (Vibrio alginolyticus; 24 h): 0.15 to 0.31 µM
- MIC (V. diabolicus (HE 800)): 1.25 to 2.5 µM
- MIC with 565 mM NaCl (V. diabolicus (HE 800)): 10 to 20 µM
- MIC (Bacillus megaterium): 0.07 to 0.15 µM
- MIC with 565 mM NaCl (Bacillus megaterium): 20 to 40 µM
- MIC [12]: 2.5 to 5 µM
- MIC [13]: 20 to 40 µM
- MIC [14]: 7.1 to 12.2 µM
- MIC (M. smegmatis mc^2155): 0.7 to 10 µM
- Cytotoxicity towards Jurkat human cells (Jurkat human cells): cytotoxic
